This note sets out measurements from patent US9028856B2, “Synergistic pesticide compositions” (priority 2008, dated 2015).

The data set relates to tropical house mosquito Culex quinquefasciatus (adults, 3 days old). Kind of data set: Efficacy of formulations on surfaces (glazed/unglazed tiles, plywood), ten 3 day old mosquitoes, 3 min exposure. The format is in vivo. Here is the method: The ingredients were diluted in acetone to give a concentration which corresponds to the desired quantity of a.i./m^2. A 1 ml quantity of the solution was applied by pipette onto the 15 cm×15 cm surfaces without treating the outer edge of 1 cm.
Ten 3 day old Culex quinquefasciatus mosquitoes were exposed to each treatment for 3 minutes under a perforated petri dish, and then a clean untreated white paper index card was moved between treated surface and petri dish. A water-soaked cotton pad was applied immediately after.
Each test consisted of three replicates (three batches of ten mosquitoes were exposed for three minutes to the same surface, each one hour later), of which the mean values are calculated.
The test insects were Culex quinquefasciatus (adults, 3 days old). The compositions were evaluated for their ability to provide effective knock down after 3, 9, 15, and 30 minutes, 1, 2, 3, 4 and 24 hours (mortality). The experiments were performed in triplicate on glazed tile, but not repeated on wood.
Test Insects are Culex quinquefasciatus (adults, 3 days old). The Application provides the technical compounds were dissolved in acetone and applied as 1 ml solutions onto glazed tiles (15 cm×15 cm). An evaluation is provided at knock down after 3, 9, 15, and 30 minutes, 1, 2, 3, 4 and 24 hours (mortality). There are 3 replicates.
Test Insects: Culex quinquefasciatus (adults, 3 days old)
Application: The technical compounds were dissolved in acetone and applied as 1 ml solutions onto glazed tiles (15 cm×15 cm).
Evaluation: Knock down after 3, 9, 15, and 30 minutes, 1, 2, 3, 4 and 24 hours (mortality) […]
Application: The active ingredients were applied as 1 ml acetone solutions onto glazed tiles (15 cm×15 cm) […]
For the mosquitoes, the USDA Petri Dish Method is used. Ten 3 day old Culex quinquefasciatus mosquitoes are exposed to each treatment for 3 minutes under a perforated petri dish and then a clean untreated white paper index card is moved between treated surface and petri dish. A water-soaked cotton pad is applied immediately after. […]

Where [1] appears, read: 3′, in acetone on glazed tiles, Table 84.
Setting [2] is: 9′, in acetone on glazed tiles, Table 84.
Where [3] appears, read: 15′, in acetone on glazed tiles, Table 84.
The mark [4] stands for this setting: 30′, in acetone on glazed tiles, Table 84.
[5] abbreviates: 1 h, in acetone on glazed tiles, Table 84.
Where [6] appears, read: 2 h, in acetone on glazed tiles, Table 84.
Setting [7] is: 3 h, in acetone on glazed tiles, Table 84.
[8] abbreviates: 4 h, in acetone on glazed tiles, Table 84.
[9] abbreviates: 24 h (mortality), in acetone on glazed tiles, Table 84.

As to `CC1(C)CC(O)CC(C)(C)N1`, the “% KD and Mortality” value was 0% under setting [1]; 0% under setting [2]; 0% under setting [3]; 0% under setting [4]; 0% under setting [5]; 0% under setting [6]. Besides, the “% KD and Mortality” value reads like this: under setting [7], 0%; under setting [8], 0%; under setting [9], 3%.

Regarding `CC1(C)CC(O)CC(C)(C)N1[O]`, the “% KD and Mortality” value runs as follows: under setting [1], 0%; under setting [2], 0%; under setting [3], 0%; under setting [4], 0%; under setting [5], 0%; under setting [6], 0%. Further, the “% KD and Mortality” value runs as follows: under setting [7], 0%; under setting [8], 0%; under setting [9], 7%.

`CCCCCCCCON1C(C)(C)CC(OC(=O)CCCCCCCCC(=O)OC2CC(C)(C)N(OCCCCCCCC)C(C)(C)C2)CC1(C)C`: the “% KD and Mortality” value under setting [1] came out at 3%; the “% KD and Mortality” value under setting [2] came to 3%; the “% KD and Mortality” value under setting [3] came to 3%; the “% KD and Mortality” value under setting [4] worked out at 3%; the “% KD and Mortality” value under setting [5] stood at 3%; the “% KD and Mortality” value under setting [6] turned out to be 3%. Besides, the “% KD and Mortality” value under setting [7] was determined as 3%; the “% KD and Mortality” value under setting [8] is 3%; the “% KD and Mortality” value under setting [9] is listed as 7%.

In the case of `CC1(C)CC(OC(=O)CCCCCCCCC(=O)OC2CC(C)(C)NC(C)(C)C2)CC(C)(C)N1`, the “% KD and Mortality” value turned out to be 0% under setting [1]; 0% under setting [2]; 0% under setting [3]; 0% under setting [4]; 3% under setting [5]; 0% under setting [6]. Further, the “% KD and Mortality” value under setting [7] was determined as 3%; the “% KD and Mortality” value under setting [8] was determined as 3%; the “% KD and Mortality” value under setting [9] was 17%.

On to `O=C(CCCCCCCCC(=O)ON1C(=O)CCC1=O)ON1C(=O)CCC1=O`, for which the “% KD and Mortality” value runs as follows: under setting [1], 0%; under setting [2], 0%; under setting [3], 0%; under setting [4], 0%; under setting [5], 0%; under setting [6], 0%. Besides, the “% KD and Mortality” value amounted to 0% under setting [7], 0% under setting [8] and 0% under setting [9].

Regarding `CNC(=O)Oc1cccc2c1OC(C)(C)O2` [0.1% bendiocarb], the “% KD and Mortality” value runs as follows: under setting [1], 0%; (3′, solvent 2006-009114 (EC formulation), glazed tiles, Table 83) 10%; (3′, solvent Acetone + 0.05% citric acid, glazed tiles, Table 83) 13%; (3′, solvent Acetone, glazed tiles, Table 83) 3%; (3′, solvent Ethylacetate, glazed tiles, Table 83) 0%; (3′, solvent Methanol, glazed tiles, Table 83) 0%. Further, the “% KD and Mortality” value reads like this: under setting [2], 0%; (9′, solvent 2006-009114 (EC formulation), glazed tiles, Table 83) 17%; (9′, solvent Acetone + 0.05% citric acid, glazed tiles, Table 83) 33%; (9′, solvent Acetone, glazed tiles, Table 83) 3%; (9′, solvent Ethylacetate, glazed tiles, Table 83) 3%; (9′, solvent Methanol, glazed tiles, Table 83) 0%. The “% KD and Mortality” value runs as follows: under setting [3], 3%; (15′, solvent 2006-009114 (EC formulation), glazed tiles, Table 83) 23%; (15′, solvent Acetone + 0.05% citric acid, glazed tiles, Table 83) 70%; (15′, solvent Acetone, glazed tiles, Table 83) 3%; (15′, solvent Ethylacetate, glazed tiles, Table 83) 7%; (15′, solvent Methanol, glazed tiles, Table 83) 0%. The “% KD and Mortality” value is 17% under setting [4]; 27% (30′, solvent 2006-009114 (EC formulation), glazed tiles, Table 83); 97% (30′, solvent Acetone + 0.05% citric acid, glazed tiles, Table 83); 13% (30′, solvent Acetone, glazed tiles, Table 83); 27% (30′, solvent Ethylacetate, glazed tiles, Table 83); 13% (30′, solvent Methanol, glazed tiles, Table 83). The “% KD and Mortality” value under setting [5] came to 50%; the “% KD and Mortality” value (1 h, solvent 2006-009114 (EC formulation), glazed tiles, Table 83) stood at 43%; the “% KD and Mortality” value (1 h, solvent Acetone + 0.05% citric acid, glazed tiles, Table 83) worked out at 97%; the “% KD and Mortality” value (1 h, solvent Acetone, glazed tiles, Table 83) amounted to 77%; the “% KD and Mortality” value (1 h, solvent Ethylacetate, glazed tiles, Table 83) is 50%; the “% KD and Mortality” value (1 h, solvent Methanol, glazed tiles, Table 83) is given as 57%. For the same compound, the “% KD and Mortality” value was 73% under setting [6]; 87% (2 h, solvent 2006-009114 (EC formulation), glazed tiles, Table 83); 97% (2 h, solvent Acetone + 0.05% citric acid, glazed tiles, Table 83); 100% (2 h, solvent Acetone, glazed tiles, Table 83); 73% (2 h, solvent Ethylacetate, glazed tiles, Table 83); 73% (2 h, solvent Methanol, glazed tiles, Table 83). Besides, the “% KD and Mortality” value came out at 80% under setting [7]; 93% (3 h, solvent 2006-009114 (EC formulation), glazed tiles, Table 83); 100% (3 h, solvent Acetone + 0.05% citric acid, glazed tiles, Table 83); 100% (3 h, solvent Acetone, glazed tiles, Table 83); 70% (3 h, solvent Ethylacetate, glazed tiles, Table 83); 73% (3 h, solvent Methanol, glazed tiles, Table 83). The “% KD and Mortality” value runs as follows: under setting [8], 90%; (4 h, solvent 2006-009114 (EC formulation), glazed tiles, Table 83) 97%; (4 h, solvent Acetone + 0.05% citric acid, glazed tiles, Table 83) 100%; (4 h, solvent Acetone, glazed tiles, Table 83) 100%; (4 h, solvent Ethylacetate, glazed tiles, Table 83) 80%; (4 h, solvent Methanol, glazed tiles, Table 83) 73%. The “% KD and Mortality” value is on record as 100% under setting [9]; 97% (24 h (mortality), solvent 2006-009114 (EC formulation), glazed tiles, Table 83); 100% (24 h (mortality), solvent Acetone + 0.05% citric acid, glazed tiles, Table 83); 100% (24 h (mortality), solvent Acetone, glazed tiles, Table 83); 80% (24 h (mortality), solvent Ethylacetate, glazed tiles, Table 83); 87% (24 h (mortality), solvent Methanol, glazed tiles, Table 83).

For the compound `CN1C(C)(C)CC(O)CC1(C)C` [1% 1,2,2,6,6-Pentamethyl-4-piperidinol], the “% KD and Mortality” value came out at 0% under setting [1]; 0% under setting [2]; 0% under setting [3]; 0% under setting [4]; 0% under setting [5]; 0% under setting [6]. The “% KD and Mortality” value is 0% under setting [7], 0% under setting [8] and 0% under setting [9].

For `COC(=O)CCCCCCCCC(=O)OC` [1% Dimethyl sebacate], the “% KD and Mortality” value under setting [1] is 0%; the “% KD and Mortality” value under setting [2] worked out at 0%; the “% KD and Mortality” value under setting [3] is 0%; the “% KD and Mortality” value under setting [4] was 0%; the “% KD and Mortality” value under setting [5] is reported as 0%; the “% KD and Mortality” value under setting [6] is 0%. Further, the “% KD and Mortality” value turned out to be 0% under setting [7], 0% under setting [8] and 0% under setting [9].

In the case of `O=C(CCCCCCCCC(=O)OCc1ccccc1)OCc1ccccc1` [1% Sebacic acid dibenzyl ester], the “% KD and Mortality” value runs as follows: under setting [1], 0%; under setting [2], 0%; under setting [3], 0%; under setting [4], 0%; under setting [5], 0%; under setting [6], 0%. Further, the “% KD and Mortality” value is reported as 3% under setting [7], 3% under setting [8] and 7% under setting [9].

Take `O=C(O)CCCCCCCCC(=O)O` [1% Sebacic acid]: the “% KD and Mortality” value runs as follows: under setting [1], 3%; under setting [2], 3%; under setting [3], 3%; under setting [4], 3%; under setting [5], 3%; under setting [6], 3%. For the same compound, the “% KD and Mortality” value under setting [7] came to 3%; the “% KD and Mortality” value under setting [8] is recorded as 3%; the “% KD and Mortality” value under setting [9] is listed as 13%.
